US20040038950A1, “Pharmaceutical composition for treating IL-1 related diseases or disorders” (priority 2002, published 2004)

Key:
MMP-3 = assay: Western blot of MMP-3 in chondrocyte lysates; format: cell-based, human; details: 0, 10 or 100 μ DHEA, three days
Procedure: (§1) Chondrocytes were isolated from the knee joint of patient undergoing a knee replacement due to osteoarthritis. Cartilage was digested with 0.2% protease Type XIV (Sigma) for 1 hour, followed by 3-hour incubation with 0.2% collagenase Type IA (Sigma) at 37° C. Following the incubation, the undigested cartilage fragments were removed using a 70 μm Nylon sieve. Chondrocytes were washed with DPBS and maintained in monolayer culture for 7 days in Dulbecco's modified Eagle's medium (DMEM; Life Technologies Inc.) which contained 10% fetal bovine serum (FBS; Life Technologies), 100 units/ml penicillin-streptomycin (Life Technologies) and 25 μg/ml L-ascorbic acid (Sigma). All experiments were performed with primary or first passage cells. The preparation of chondrocytes in alginate beads was carried out with 4×10^6 cells per 1 ml of alginate. Alginate cultures were maintained for 7 days at 37° C., 5% CO2 and 95% humidity and incubated with various concentrations of DHEA (0, 10, 50 or 100 μM) for a varing period of time. DHEA was purchased from Sigma and used after dissolving either in ethanol or dimethyl sulfoxide (DMSO). […]
(§2) To investigate the effect of DHEA on the protein concentration, Western blot analysis was performed. […] Protein concentration of the supernatant was determined by Bio-Rad protein assay (Bio-Rad, USA) using bovine serum albumin (BSA) as a standard. […]

MMP-1 = assay: Western blot of MMP-1 in chondrocyte lysates; format: cell-based, human; details: 0, 10 or 100 μ DHEA, three days
Procedure: as §1, §2

MMP-3 expression = assay: Osteoarthritic rabbit model (ACLT), intraarticular injection, RT-PCR of MMP-3; format: in vivo; details: rabbit ACLT knee, intraarticular once a week for 5 weeks
Procedure: Mature New Zealand White rabbits underwent bilateral anterior cruciate ligament transection (ACLT). ACLT was performed using a medial arthrotomy method. Postoperatively the animals were permitted cage (60 cm×60 cm×40 cm) activity without immobilization. The right knees received via intraartiticular injection DHEA, DHEA-pyruvate or DHEA+HA, 4 weeks after ACLT and once a week for 5 weeks. The left knees received 0.3 ml of intraarticular injection with control solution (carrier solution). After 9 weeks from ACLT, the animas were sacrificed.
Synovium (entire tissue) around the infrapatellar fat pads and cartilage tissue from the femoral condyle and the tibial plateau were harvested. The subsequent experimental procedure was the same as described in Test Example IV.

human chondrocyte = assay: Cell proliferation, [3H]thymidine assay in chondrocyte alginate bead culture; format: cell-based; details: 10-100 μM DHEA
Procedure: as §1, with “alginate.” for “alginate. Alginate cultures were maintained for 7 days at 37° C., 5% CO2 and 95% humidity and incubated with various concentrations of DHEA (0, 10, 50 or 100 μM) for a varing period of time. DHEA was purchased from Sigma and used after dissolving either in ethanol or dimethyl sulfoxide (DMSO).”
For cell proliferation, [^3H]thymidine assay was performed on a 96-well plate (Nunc) with one alginate bead per well. […] After collecting the cells using a cell harvester (Wallac), [^3H]thymidine uptake was quantitated by measuring β emission on a β-counter (Wallac). […] The ^35SO4-labeled proteoglycan content was measured by a liquid scintillation counter (Wallac). The total cellular DNA was determined by Indole assay.

[1] = tested on: (IL-1β)-induced MMP-1 mRNA; assay: (IL-1β)-induced MMP-1 mRNA expression in chondrocytes, RT-PCR; format: cell-based, human; details: 72 hr
Procedure: (§3) Sixteen hours prior to a treatment, the complete culture medium was replaced with a serum-free medium. Chondrocyte alginate bead cultures were then treated with IL-1β ([…], (Calbiochem) and DHEA (0, 10, 50 or 100 μM) for 3 days.
(§4) Total RNA from chondrocytes was extracted using RNeasy Mini Kit (QIAGEN). Reverse transcription from 1 μg of total RNA was conducted using First Strand cDNA Synthesis Kit (MBI Fermentas) according to manufacturer's recommendation with random hexamers. The resulting cDNA was then amplified by polymerase chain reaction using AccuPower PCR Premix (Bioneer, Korea) in a final volume of 20 μl using three thermocycler temperatures (30 sec at […], 30 sec at 60° C., and 30 sec at […]). All reactions were determined to be in the linear range of amplification with the cycle number ranging from 14 to 30. The PCR products were analyzed by separation on a 2% agarose gel followed by ethidium bromide staining. Following electrophoresis, photographs were taken and analyzed using a densitometric program (TINA; Raytest Isotopenmeβgerate, Germany). Integrated density values for the genes in question were then normalized to the glyceraldehyde-3-phosphate dehydrogenase (GAPDH) values for a semiquantitative assessment. After normalizing with respect to GAPDH, percentage increase or decrease was determined. Each experiment was repeated at least three times. […]

TIMP-1 = assay: Western blot of TIMP-1 in chondrocyte lysates; format: cell-based, human; details: 0, 10 or 100 μ DHEA, three days
Procedure: as §1, §2

[2] = tested on: (IL-1β)-induced MMP-3 mRNA; assay: (IL-1β)-induced MMP-3 mRNA expression in chondrocytes, RT-PCR; format: cell-based, human; details: 100 μM DHEA with IL-1β, 72 hr
Procedure: as §3, §4

type I collagen mRNA = assay: RT-PCR of type I collagen mRNA in chondrocytes; format: cell-based, human; details: 100 μM
Procedure: Chondrocytes were isolated from the knee joint of patient undergoing a knee replacement due to osteoarthritis. Cartilage was digested with 0.2% protease Type XIV (Sigma) for 1 hour, followed by 3-hour incubation with 0.2% collagenase Type IA (Sigma) at 37° C. Following the incubation, the undigested cartilage fragments were removed using a 70 μm Nylon sieve. Chondrocytes were washed with DPBS and maintained in monolayer culture for 7 days in Dulbecco's modified Eagle's medium (DMEM; Life Technologies Inc.) which contained 10% fetal bovine serum (FBS; Life Technologies), 100 units/ml penicillin-streptomycin (Life Technologies) and 25 μg/ml L-ascorbic acid (Sigma). All experiments were performed with primary or first passage cells. The preparation of chondrocytes in alginate beads was carried out with 4×10^6 cells per 1 ml of alginate. Alginate cultures were maintained for 7 days at 37° C., 5% CO2 and 95% humidity and incubated with various concentrations of DHEA (0, 10, 50 or 100 μM) for a varing period of time. DHEA was purchased from Sigma and used after dissolving either in ethanol or dimethyl sulfoxide (DMSO). After a desired incubation period, cells were harvested by solubilizing the alginate beads in citrate buffer (55 mM sodium citrate, 0.15 M NaCl, pH 7.0) for 10 min at 37° C. and by centrifugation (300 g, 5 min).
Total RNA from chondrocytes was extracted using RNeasy Mini Kit (QIAGEN). Reverse transcription from 1 μg of total RNA was conducted using First Strand cDNA Synthesis Kit (MBI Fermentas) according to manufacturer's recommendation with random hexamers. […] All reactions were determined to be in the linear range of amplification with the cycle number ranging from 14 to 30. The PCR products were analyzed by separation on a 2% agarose gel followed by ethidium bromide staining. Following electrophoresis, photographs were taken and analyzed using a densitometric program (TINA; Raytest Isotopenmeβgerate, Germany). […] After normalizing with respect to GAPDH, percentage increase or decrease was determined. […]

C[C@]12CC[C@H](O)CC1=CC[C@@H]1[C@@H]2CC[C@]2(C)C(=O)CC[C@@H]12 [DHEA, dehyroepiandrosterone]
MMP-3 protein level (Western blot) (MMP-3): did not change | MMP-1 protein level (Western blot) (MMP-1): reduced with increasing DHEA concentration | expression of MMP-3 (MMP-3 expression): did not change | effect on cell proliferation (human chondrocyte; after day 5): insignificant | cell proliferation (human chondrocyte; as early as day 3 of culture): slightly reduced | (IL-1β)-induced up-regulation of MMP-1 mRNA, inhibition ([1]; 10 μM DHEA with IL-1β): 74% | (IL-1β)-induced up-regulation of MMP-1 mRNA, inhibition ([1]; 50 μM DHEA with IL-1β): 53% | translational level of mature TIMP-1 (Western blot) (TIMP-1): increased with increasing concentration of DHEA | (IL-1β)-induced expression of MMP-3 mRNA, inhibition [2]: 73% | type I collagen mRNA, maximal inhibition (type I collagen mRNA; 72 hours): 28% | type I collagen production, reduced by (type I collagen mRNA; after 24-72 hr of culture): less than 50% | type I collagen mRNA expression (type I collagen mRNA; after 72 hr): markly inhibited
